Measurements: patent US11389447B2 (Janssen Sciences Ireland Unlimited Company, priority 2006, dated 2022)
Like-named read-outs stand apart in the source and are kept apart here.

How the values were obtained:
[1] = test system: mutated variants of HIV; details: many of its mutated variants; cited from earlier work
[2] = Kinetic study: plasma kinetics of TMC278 after single IM or SC injection of a nanosuspension; assay type: in vivo, male beagle dogs; details: 5 mg/kg; for AUC(0-t) / Cmax / Tmax / concentration at 0 h / concentration at 1 h / concentration at 3 h / concentration at 8 h / concentration at 24 h / concentration at 48 h / concentration at 72 h / concentration at 144 h / concentration at 192 h / concentration at 240 h / concentration at 312 h / concentration at 384 h / concentration at 480 h / concentration at 648 h / concentration at 696 h / concentration at 864 h / concentration at 1032 h / concentration at 1200 h / concentration at 1368 h / concentration at 1536 h / concentration at 1704 h / concentration at 1872 h / concentration at 2040 h / concentration at 2208 h: male, beagle, dog, plasma; for AUC(0-t) / Cmax / Tmax: im, single IM 5 mg/kg TMC278 nanosuspension; for Cmax: read-out: Cmax; for Tmax: read-out: Tmax; for concentration at 0 h / concentration at 1 h / concentration at 3 h / concentration at 8 h / concentration at 24 h / concentration at 48 h / concentration at 72 h / concentration at 144 h / concentration at 192 h / concentration at 240 h / concentration at 312 h / concentration at 384 h / concentration at 480 h / concentration at 648 h / concentration at 696 h / concentration at 864 h / concentration at 1032 h / concentration at 1200 h / concentration at 1368 h / concentration at 1536 h / concentration at 1704 h / concentration at 1872 h / concentration at 2040 h / concentration at 2208 h: intramuscular, plasma concentration of TMC278, single IM 5 mg/kg TMC278 nanosuspension;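 on all read-outs here: healthy male beagle dogs injected in both biceps femoris muscles (IM) or both thoracal sides (SC), total volume 0.2 mL/kg, drug measured in plasma from blood samples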
Method: Six healthy male beagle dogs with body weights ranging from 8 to 16 kg at the start of the study, were used. Each dog was identified by an ear tattoo number. Two dogs were dosed intramuscularly (IM) in the left and right m. biceps femoris (treatment group A). […] Two dogs were dosed subcutaneously (SC) in the left and right thoracal region. The injection volume was 2×0.1 ml/kg in all treatment groups. A 20 G needle was used.
Blood samples of 3 ml were taken from the left jugular vein from all dogs on day 0 at 0 h (predose), 20 min, 1 h, 3 h, 8 h and 24 h post-dose and further on days 2, 3, 6, 8, 10, 13, 16, 20, 23, 27, 29, 36, 43, 50, 57, 64, 71, 78, 85 and 92 at approximately 8 AM. Blood samples were placed on EDTA, EDTA Vacuette Greiner, Cat. No. 454086, Greiner Labortechnik N.V.). Within 2 h of blood sampling, samples were centrifuged at room temperature at about 1900×g for 10 minutes to allow plasma separation. Plasma was immediately transferred into a second tube and stored in the freezer within 2 hours after the start of centrifugation.

Q: Which results are given for `Cc1cc(C=CC#N)cc(C)c1Nc1ccnc(Nc2ccc(C#N)cc2)n1` [TMC278, 4-[[4-[[4-(2-cyanoethenyl)-2,6-dimethylphenyl]amino]-2-pyrimidinyl]amino]benzonitrile]?
A: activity against mutated variants of HIV (in words) [1]: pronounced activity; blood plasma levels after injection (in words) ([2]; injectable formulation of nanonised substance, male beagle dogs): stable blood plasma levels during a prolonged period of time; AUC(0-t) ([2]; dog 17264, read-out: AUC0-312 h): 27400 ng·h/mL; AUC(0-t) ([2]; dog 17264, read-out: AUC0-696 h): 34800 ng·h/mL; AUC(0-t) ([2]; dog 17264, read-out: AUC0-2208 h): 40500 ng·h/mL; Cmax ([2]; dog 17264): 159 ng/mL; Tmax ([2]; dog 17264): 48 h; AUC(0-t) ([2]; dog 18186, read-out: AUC0-312 h): 26600 ng·h/mL; AUC(0-t) ([2]; dog 18186, read-out: AUC0-696 h): 33000 ng·h/mL; AUC(0-t) ([2]; dog 18186, read-out: AUC0-2208 h): 38200 ng·h/mL; Cmax ([2]; dog 18186): 186 ng/mL; AUC(0-t) ([2]; mean of 2 dogs, read-out: AUC0-312 h): 27000 ng·h/mL; AUC(0-t) ([2]; mean of 2 dogs, read-out: AUC0-696 h): 33900 ng·h/mL; AUC(0-t) ([2]; mean of 2 dogs, read-out: AUC0-2208 h): 39400 ng·h/mL; Cmax ([2]; mean of 2 dogs): 173 ng/mL; Tmax ([2]; mean of 2 dogs): 24 h; concentration at 0 h ([2]; dog 17264, 0 h (d0, predose)): < 1 ng/mL; concentration at 1 h ([2]; dog 17264, 1 h): 110 ng/mL; concentration at 3 h ([2]; dog 17264, 3 h): 131 ng/mL; concentration at 8 h ([2]; dog 17264, 8 h): 130 ng/mL; concentration at 24 h ([2]; dog 17264, 24 h (d1)): 150 ng/mL; concentration at 48 h ([2]; dog 17264, 48 h (d2)): 159 ng/mL; concentration at 72 h ([2]; dog 17264, 72 h (d3)): 115 ng/mL; concentration at 144 h ([2]; dog 17264, 144 h (d6)): 86.2 ng/mL; concentration at 192 h ([2]; dog 17264, 192 h (d8)): 72.4 ng/mL; concentration at 240 h ([2]; dog 17264, 240 h (d10)): 56.7 ng/mL; concentration at 312 h ([2]; dog 17264, 312 h (d13)): 33.4 ng/mL; concentration at 384 h ([2]; dog 17264, 384 h (d16)): 23.9 ng/mL; concentration at 480 h ([2]; dog 17264, 480 h (d20)): 20.5 ng/mL; concentration at 648 h ([2]; dog 17264, 648 h (d27)): 11.4 ng/mL; concentration at 696 h ([2]; dog 17264, 696 h (d29)): 11.3 ng/mL; concentration at 864 h ([2]; dog 17264, 864 h (d36)): 7.33 ng/mL; concentration at 1032 h ([2]; dog 17264, 1032 h (d43)): 5.19 ng/mL; concentration at 1200 h ([2]; dog 17264, 1200 h (d50)): 3.4 ng/mL; concentration at 1368 h ([2]; dog 17264, 1368 h (d57)): 3 ng/mL; concentration at 1536 h ([2]; dog 17264, 1536 h (d64)): 2.84 ng/mL; concentration at 1704 h ([2]; dog 17264, 1704 h (d71)): 2.48 ng/mL; concentration at 1872 h ([2]; dog 17264, 1872 h (d78)): 1.79 ng/mL; concentration at 2040 h ([2]; dog 17264, 2040 h (d85)): 1.99 ng/mL; concentration at 2208 h ([2]; dog 17264, 2208 h (d92)): 1.56 ng/mL; concentration at 0 h ([2]; dog 18186, 0 h (d0, predose)): < 1 ng/mL; concentration at 1 h ([2]; dog 18186, 1 h): 82.6 ng/mL; concentration at 3 h ([2]; dog 18186, 3 h): 145 ng/mL; concentration at 8 h ([2]; dog 18186, 8 h): 136 ng/mL; concentration at 24 h ([2]; dog 18186, 24 h (d1)): 120 ng/mL; concentration at 48 h ([2]; dog 18186, 48 h (d2)): 132 ng/mL; concentration at 72 h ([2]; dog 18186, 72 h (d3)): 99.6 ng/mL; concentration at 144 h ([2]; dog 18186, 144 h (d6)): 91.9 ng/mL; concentration at 192 h ([2]; dog 18186, 192 h (d8)): 75.5 ng/mL; concentration at 240 h ([2]; dog 18186, 240 h (d10)): 62.5 ng/mL; concentration at 312 h ([2]; dog 18186, 312 h (d13)): 38 ng/mL; concentration at 384 h ([2]; dog 18186, 384 h (d16)): 20.6 ng/mL; concentration at 480 h ([2]; dog 18186, 480 h (d20)): 16.6 ng/mL; concentration at 648 h ([2]; dog 18186, 648 h (d27)): 9.08 ng/mL; concentration at 696 h ([2]; dog 18186, 696 h (d29)): 11.2 ng/mL; concentration at 864 h ([2]; dog 18186, 864 h (d36)): 6.44 ng/mL; concentration at 1032 h ([2]; dog 18186, 1032 h (d43)): 5.18 ng/mL; concentration at 1200 h ([2]; dog 18186, 1200 h (d50)): 3.25 ng/mL; concentration at 1368 h ([2]; dog 18186, 1368 h (d57)): 3 ng/mL; concentration at 1536 h ([2]; dog 18186, 1536 h (d64)): 2.44 ng/mL; concentration at 1704 h ([2]; dog 18186, 1704 h (d71)): 1.84 ng/mL; concentration at 1872 h ([2]; dog 18186, 1872 h (d78)): 1.45 ng/mL; concentration at 2040 h ([2]; dog 18186, 2040 h (d85)): 1.61 ng/mL; concentration at 2208 h ([2]; dog 18186, 2208 h (d92)): 1.25 ng/mL; concentration at 0 h ([2]; mean of 2 dogs, 0 h (d0, predose)): < 1 ng/mL; concentration at 1 h ([2]; mean of 2 dogs, 1 h): 96.3 ng/mL; concentration at 3 h ([2]; mean of 2 dogs, 3 h): 138 ng/mL; concentration at 8 h ([2]; mean of 2 dogs, 8 h): 133 ng/mL; concentration at 24 h ([2]; mean of 2 dogs, 24 h (d1)): 135 ng/mL; concentration at 48 h ([2]; mean of 2 dogs, 48 h (d2)): 146 ng/mL; concentration at 72 h ([2]; mean of 2 dogs, 72 h (d3)): 107 ng/mL; concentration at 144 h ([2]; mean of 2 dogs, 144 h (d6)): 89.1 ng/mL; concentration at 192 h ([2]; mean of 2 dogs, 192 h (d8)): 74 ng/mL; concentration at 240 h ([2]; mean of 2 dogs, 240 h (d10)): 59.6 ng/mL; concentration at 312 h ([2]; mean of 2 dogs, 312 h (d13)): 35.7 ng/mL; concentration at 384 h ([2]; mean of 2 dogs, 384 h (d16)): 22.3 ng/mL; concentration at 480 h ([2]; mean of 2 dogs, 480 h (d20)): 18.6 ng/mL; concentration at 648 h ([2]; mean of 2 dogs, 648 h (d27)): 10.2 ng/mL; concentration at 696 h ([2]; mean of 2 dogs, 696 h (d29)): 11.3 ng/mL; concentration at 864 h ([2]; mean of 2 dogs, 864 h (d36)): 6.89 ng/mL; concentration at 1032 h ([2]; mean of 2 dogs, 1032 h (d43)): 5.19 ng/mL; concentration at 1200 h ([2]; mean of 2 dogs, 1200 h (d50)): 3.33 ng/mL; concentration at 1368 h ([2]; mean of 2 dogs, 1368 h (d57)): 3 ng/mL; concentration at 1536 h ([2]; mean of 2 dogs, 1536 h (d64)): 2.64 ng/mL; concentration at 1704 h ([2]; mean of 2 dogs, 1704 h (d71)): 2.16 ng/mL; concentration at 1872 h ([2]; mean of 2 dogs, 1872 h (d78)): 1.62 ng/mL; concentration at 2040 h ([2]; mean of 2 dogs, 2040 h (d85)): 1.8 ng/mL
